As usually defined, the IC50 is the point on the concentration scale where inhibition reaches its midpoint.

For one assay, the target named is T1, RORγ (Homo sapiens, UniProt P51449).
T1 construct: expressed in transfected cells; host or cells: HEK 293 cells, transiently transfected
T1 sequence (P51449 269-508 limits assumed): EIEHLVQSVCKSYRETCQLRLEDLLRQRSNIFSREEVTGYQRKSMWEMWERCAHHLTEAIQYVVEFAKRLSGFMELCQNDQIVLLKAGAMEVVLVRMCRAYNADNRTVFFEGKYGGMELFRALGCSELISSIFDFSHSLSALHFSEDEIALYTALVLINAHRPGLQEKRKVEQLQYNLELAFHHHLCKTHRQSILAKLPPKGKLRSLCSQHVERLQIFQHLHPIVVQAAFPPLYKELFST
In words: Reporter Gene Assay (RGA): nuclear receptor transactivation assay, inhibition of RORγ transactivation of a luciferase reporter in transiently transfected HEK 293 cells. Type of assay: cell-based.
Conditions: not given
In general terms: A reporter such as luciferase makes a cellular process visible.
`CCc1ncnc(C2CC2)c1-c1ncc2nc(NCc3ccc(S(C)(=O)=O)cc3)c(=O)n([C@H](C)CC)c2n1` [Example 191]: it took 86 nM to reach half-maximal inhibition (IC50). In turn, `CCS(=O)(=O)c1ccc(CNc2nc3cnc(-c4c(C5CC5)ncnc4C4CC4)nc3n(C3CC3)c2=O)cc1` [Example 38] showed an IC50 of 1100 nM. `CCS(=O)(=O)c1ccc(CNc2nc3cnc(-c4c(C)ncnc4C4CC4)nc3n([C@@H](C)C(F)(F)F)c2=O)cc1` [Example 177]: the IC50 stood at 73 nM.

Staying with this assay, now noted: read-out: RGA IC50.
For `CCC(C)n1c(=O)c(NCc2ccc(S(C)(=O)=O)cc2)nc2cnc(-c3c(OC)ncnc3C3CC3)nc21` (stereo not shown) [Example 26], the concentration for half-maximal inhibition (IC50) was found to be 420 nM. Take `CCS(=O)(=O)c1ccc(CNc2nc3cnc(-c4cnc(N)nc4C(C)C)nc3n(C(C)C)c2=O)nc1` [Example 140]: the IC50 amounted to 730 nM. `CCc1nc(N)nc(C2CC2)c1-c1ncc2nc(NCc3ccc(S(=O)(=O)C4CC4)cn3)c(=O)n([C@@H](C)C3CC3)c2n1` [Example 251]: the half-inhibitory concentration (IC50) turned out to be 158 nM. Regarding `CO[C@H]1CCC[C@@H]1n1c(=O)c(NCc2ccc(S(C)(=O)=O)cc2)nc2cnc(-c3c(C)ncnc3C3CC3)nc21` [Example 229], the concentration for half-maximal inhibition (IC50) came out at 530 nM. Same read-out and setting: as for `COc1ncnc(C2CC2)c1-c1ncc2nc(NCc3ccc(S(N)(=O)=O)cn3)c(=O)n(CC(C)C)c2n1` [Example 255], the figure is 285 nM.

Consider `CCS(=O)(=O)c1ccc(CNc2nc3cnc(-c4c(C5CC5)ncnc4C4CC4)nc3n([C@@H](C)C(C)C)c2=O)nc1` [Example 7], for which the IC50 came out at 280 nM. For the compound `CCS(=O)(=O)c1ccc(CNc2nc3cnc(-c4c(C)ncnc4C4CC4)nc3n([C@@H](C)C(C)C)c2=O)nc1` [Example 66], the IC50 turned out to be 410 nM. For the compound `COC(=O)c1ccc(CNc2nc3cnc(-c4c(C)ncnc4C4CC4)nc3n([C@@H](C)C3CC3)c2=O)cc1` [Example 216], the IC50 turned out to be 1380 nM. Same read-out and setting: as for `CCS(=O)(=O)c1ccc(CNc2nc3cnc(-c4c(C)nc(N)nc4C4CC4)nc3n([C@H](C)C3CCC3)c2=O)nc1` [Example 233], the figure is 155 nM.

Turning to `CCS(=O)(=O)c1ccc(CNc2nc3cnc(-c4c(OC)ncnc4C4CC4)nc3n([C@H]3CCC[C@@H]3C#N)c2=O)nc1` [Example 109], the IC50 turned out to be 790 nM.

For `Cc1ncnc(C2CC2)c1-c1ncc2nc(NCc3ccc(C(=O)O)cc3)c(=O)n([C@@H](C)C3CC3)c2n1` [Example 200], the concentration for half-maximal inhibition (IC50) turned out to be 855 nM. For the compound `CCS(=O)(=O)c1sc(CNc2nc3cnc(-c4c(C)ncnc4C4CC4)nc3n([C@@H](C)C3CC3)c2=O)nc1C` [Example 114], the IC50 was found to be 107 nM. With `CCS(=O)(=O)c1ccc(CNc2nc3cnc(-c4c(OC)ncnc4C4CC4)nc3n([C@H]3CCC[C@H]3C#N)c2=O)nc1` [Example 108], the 50% inhibitory concentration (IC50) amounted to 300 nM.

Consider `CCS(=O)(=O)N1CCC(CNc2nc3cnc(-c4c(C)ncnc4C4CC4)nc3n(C(C)C)c2=O)CC1` [Example 130], for which the concentration for half-maximal inhibition (IC50) amounted to 285 nM. On to `CC[C@@H](C)n1c(=O)c(NCc2ccc(S(N)(=O)=O)cn2)nc2cnc(-c3c(OC)ncnc3C3CC3)nc21` [Example 236], for which the half-maximal inhibitory concentration (IC50) was 185 nM. In the case of `CC[C@@H](C)n1c(=O)c(NCc2ccc(S(=O)(=O)CC)cn2)nc2cnc(-c3c(C)ncnc3C3CC3)nc21` [Example 84], the 50% inhibitory concentration (IC50) is 400 nM. As to `CCS(=O)(=O)c1ccc(CNc2nc3cnc(-c4c(C)nc(N)nc4C4CC4)nc3n([C@@H](C)C3CC3)c2=O)nc1` [Example 217], the IC50 was 160 nM. In the case of `COc1ncnc(C2CC2)c1-c1ncc2nc(NCc3ccc(S(C)(=O)=O)cc3)c(=O)n([C@H]3CCC[C@@H]3OC)c2n1` [Example 230], the IC50 was 270 nM. Same read-out and setting: the result for `CC[C@@H](C)n1c(=O)c(NCc2ccc(S(=O)(=O)CC)nc2)nc2cnc(-c3c(C4CC4)ncnc3C3CC3)nc21` [Example 224] reads 120 nM; that for `CC(=O)N1CCC(CNc2nc3cnc(-c4c(C)ncnc4C4CC4)nc3n([C@@H](C)C3CC3)c2=O)CC1` [Example 166], 1600 nM; that for `Cc1ncnc(C2CC2)c1-c1ncc2nc(NCC3CCN(S(=O)(=O)CC#N)CC3)c(=O)n([C@@H](C)C3CC3)c2n1` [Example 165], 157 nM. On to `CC[C@@H](C)n1c(=O)c(NCc2ccc(S(C)(=O)=O)cc2)nc2cnc(-c3c(OC)ncnc3C3CC3)nc21` [Example 190], for which the half-inhibitory concentration (IC50) is 130 nM. On the same count and under the same terms, as for `CCS(=O)(=O)N1CC[C@@H](CNc2nc3cnc(-c4c(C)ncnc4C4CC4)nc3n([C@@H](C)C3CC3)c2=O)C1` [Example 211], the figure is 225 nM. For `CC[C@@H](C)n1c(=O)c(NCc2ccc(S(C)(=O)=O)cc2)nc2cnc(-c3c(C)ncnc3C3CC3)nc21` [Example 189], the half-inhibitory concentration (IC50) came out at 120 nM. Still for that read-out and setting: as for `CCS(=O)(=O)c1ccc(CNc2nc3cnc(-c4c(OC)ncnc4C4CC4)nc3n(C3(C)CC3(F)F)c2=O)nc1` (stereo not shown) [Example 36], the figure is 880 nM; as for `CCS(=O)(=O)c1ccc(CNc2nc3cnc(-c4c(C5CC5)ncnc4C4CC4)nc3n(C3CCCC3)c2=O)nc1` [Example 13], 300 nM; as for `CCS(=O)(=O)c1ccc(CNc2nc3cnc(-c4c(OC)ncnc4C4CC4)nc3n(CC(C)C)c2=O)cn1` [Example 154], 295 nM. Still for that read-out and setting: the result for `CCS(=O)(=O)c1cnc(CNc2nc3cnc(-c4c(C)ncnc4C4CC4)nc3n([C@@H](C)C(F)(F)F)c2=O)nc1` [Example 188] reads 315 nM; that for `CCS(=O)(=O)c1ccc(CNc2nc3cnc(-c4c(C)ncnc4C4CC4)nc3n(C3CCCC3=O)c2=O)nc1` (stereo not shown) [Example 119], 720 nM. On to `CC[C@@H](C)n1c(=O)c(NCc2ncc(S(=O)(=O)CC)cn2)nc2cnc(-c3c(C4CC4)ncnc3C3CC3)nc21` [Example 186], for which the IC50 turned out to be 150 nM. On the same count and under the same terms, the result for `Cc1ncnc(C2CC2)c1-c1ncc2nc(NCc3ccc(S(C)(=O)=O)cn3)c(=O)n(CC3CC3)c2n1` [Example 247] reads 385 nM; that for `COc1ncnc(C2CC2)c1-c1ncc2nc(NCc3ccc(S(C)(=O)=O)cn3)c(=O)n(C3CCC3)c2n1` [Example 241], 310 nM; that for `CNS(=O)(=O)c1ccc(CNc2nc3cnc(-c4c(OC)ncnc4C4CC4)nc3n(C3CCC3)c2=O)nc1` [Example 239], 205 nM.

As for `CCS(=O)(=O)c1ccc(CNc2nc3cnc(-c4c(OC)ncnc4C4CC4)nc3n(C3CCCC3=O)c2=O)nc1` (stereo not shown) [Example 120], the IC50 came out at 420 nM. With `CCC(C)n1c(=O)c(NCc2ccc(S(C)(=O)=O)cc2)nc2cnc(-c3c(C)ncnc3C3CC3)nc21` (stereo not shown) [Example 14], the IC50 was determined as 310 nM. Take `CCc1ncnc(C2CC2)c1-c1ncc2nc(NCc3ccc(S(=O)(=O)CC)cn3)c(=O)n(C3CCCC3)c2n1` [Example 3]: the 50% inhibitory concentration (IC50) was found to be 230 nM. In the case of `CC[C@H](C)n1c(=O)c(NCc2ccc(S(N)(=O)=O)cn2)nc2cnc(-c3c(C)ncnc3C3CC3)nc21` [Example 98], the half-maximal inhibitory concentration (IC50) turned out to be 195 nM. With `CCS(=O)(=O)c1ccc(CNc2nc3cnc(-c4c(C)ncnc4C4CC4)nc3n(CC(C)C)c2=O)nc1` [Example 252], the IC50 was 325 nM.

With `Cc1ncnc(C2CC2)c1-c1ncc2nc(NCc3ccc(S(N)(=O)=O)cn3)c(=O)n(CC(C)C)c2n1` [Example 254], the IC50 turned out to be 455 nM. For `COc1ncnc(C2CC2)c1-c1ncc2nc(NCc3ccc(S(N)(=O)=O)cc3)c(=O)n(C(C)C)c2n1` [Example 151], the IC50 came out at 255 nM. For the compound `Cc1ncnc(C2CC2)c1-c1ncc2nc(NCc3ccc(S(C)(=N)=O)cc3)c(=O)n([C@@H](C)C3CC3)c2n1` (stereo partly shown) [Example 160], the concentration for half-maximal inhibition (IC50) is 285 nM. Take `CCS(=O)(=O)c1ccc(CNc2nc3cnc(-c4c(C)ncnc4C(C)C)nc3n(C(C)C)c2=O)nc1` [Example 178]: the half-inhibitory concentration (IC50) came to 240 nM. In the case of `COc1cc(C#N)ccc1CNc1nc2cnc(-c3c(C)ncnc3C3CC3)nc2n([C@@H](C)C2CC2)c1=O` [Example 133], the IC50 was determined as 1040 nM. As for `CC[C@@H](C)n1c(=O)c(NCc2ncc(S(=O)(=O)CC)cn2)nc2cnc(-c3c(OC)ncnc3C3CC3)nc21` [Example 184], the IC50 is 295 nM.

Turning to `CCS(=O)(=O)c1ccc(CNc2nc3cnc(-c4c(C5CC5)ncnc4C4CC4)nc3n([C@@H](C)C3CC3)c2=O)nc1` [Example 73], the IC50 was 290 nM.

For `CCS(=O)(=O)N1CCC(CNc2nc3cnc(-c4c(OC)ncnc4C4CC4)nc3n([C@H](C)C3CC3)c2=O)CC1` [Example 76], the concentration for half-maximal inhibition (IC50) stood at 1600 nM. In the case of `CCS(=O)(=O)c1ccc(CNc2nc3cnc(-c4c(C)ncnc4C4CC4)nc3n(CC(C)(C)F)c2=O)nc1` [Example 105], the concentration for half-maximal inhibition (IC50) was 1600 nM. The same measure, in the same setting: as for `CCS(=O)(=O)c1ccc(CNc2nc3cnc(-c4c(C)ncnc4C4CC4)nc3n(-c3ccccc3)c2=O)nc1` [Example 48], the figure is 3800 nM.

Consider `CCS(=O)(=O)c1ccc(CNc2nc3cnc(-c4c(C)ncnc4C4CC4)nc3n([C@H](C)C(C)C)c2=O)nc1` [Example 67], for which the half-inhibitory concentration (IC50) came out at 370 nM.

As for `CNS(=O)(=O)c1ccc(CNc2nc3cnc(-c4c(OC)ncnc4C4CC4)nc3n(C(C)C)c2=O)nc1` [Example 155], the IC50 was 185 nM. Consider `CCS(=O)(=O)c1ccc(CNc2nc3cnc(-c4c(OC)ncnc4C4CC4)nc3n([C@H]3C[C@@H]3C(F)(F)F)c2=O)nc1` (stereo in doubt) [Example 110], for which the IC50 amounted to 1350 nM. Take `CCS(=O)(=O)N[C@H]1C[C@H](CNc2nc3cnc(-c4c(C)ncnc4C4CC4)nc3n([C@@H](C)C3CC3)c2=O)C1` [Example 202]: the IC50 was 455 nM. On to `COc1ncnc(C2CC2)c1-c1ncc2nc(NCc3ccc(S(N)(=O)=O)cn3)c(=O)n(CC3CCC3)c2n1` [Example 116], for which the half-inhibitory concentration (IC50) came out at 300 nM. As for `CCS(=O)(=O)c1ccc(CNc2nc3cnc(-c4c(C5CC5)ncnc4C4CC4)nc3n([C@H](C)C(C)C)c2=O)nc1` [Example 25], the IC50 stood at 410 nM.

Turning to `CC[C@@H](C)n1c(=O)c(NCc2ccc(S(N)(=O)=O)cn2)nc2cnc(-c3c(C)nc(N)nc3C3CC3)nc21` [Example 129], the IC50 was found to be 2500 nM.

For the origin of these results see patent EP3131902B1, “COMPOUNDS AS MODULATORS OF ROR GAMMA” (Boehringer Ingelheim International GmbH, priority 2014, dated 2015).
